PMC12693167, “Design, Synthesis and Anticancer Activity of 6-Substituted-1-(3,4,5-trimethoxyphenyl)-1H-indole Against Tubulin Polymerisation” (Molecules, 2025)

tested on: A375 cells; assay: CCK-8 antiproliferative assay, A375; assay type: cell-based; conditions: Homo sapiens, A-375; cell viability (CCK-8), 48 h
Procedure: (§1) To evaluate the anticancer potential of the synthesized compounds, a panel of six human and murine cancer cell lines representing different tissue origins was selected, including MCF-7 (human breast adenocarcinoma), MDA-MB-231 (human triple-negative breast cancer), A549 (human non-small cell lung cancer), HeLa (human cervical cancer), A375 (human melanoma), and B16-F10 (murine melanoma) (Table 2). […] DMSO was used as the vehicle control, and all experiments were performed in triplicate to ensure reproducibility.
(§2) Human breast cancer cells (MCF-7), human lung cancer cells (A549), human cervical cancer cells (HeLa), human triple-negative breast cancer cells (MDA-MB-231), and human malignant melanoma cells (A375) were cultured in DMEM. Mouse melanoma cells (B16F10) were maintained in RPMI-1640 medium. All media were supplemented with 10% fetal bovine serum and 1% penicillin-streptomycin (Life Technologies, Carlsbad, CA, USA) and maintained at 37 °C in a humidified atmosphere with 5% CO2.
(§3) The cytotoxicity of the test compounds was evaluated against MCF-7, A549, HeLa, MDA-MB-231, A375, and B16F10 using the CCK-8 assay. Cells were seeded into 96-well plates at a density of 5000 cells/well. After removing the medium, 100 μL of medium with 0.1% DMSO containing test compounds at different concentrations was added to each well and incubated at 37 °C for another 48 h. The CCK-8 solution was added and incubated for another 1 h, and then, the absorbance was detected with a microplate reader at a wavelength of 450 nm. The IC50 values were calculated by nonlinear regression analysis using GraphPad Prism 8.0.2. All the experiments were repeated at least three times.

| SMILES | IC50 |
| --- | --- |
| CCc1ccccc1-c1ccc2ccn(-c3cc(OC)c(OC)c(OC)c3)c2c1 [3d, 6-(2-ethylphenyl)-1-(3,4,5-trimethoxyphenyl)-1H-indole] | 24.84 ± 0.16 µM |
| COc1cc(-n2ccc3ccc(-c4ccccc4C#N)cc32)cc(OC)c1OC [3l, 2-(1-(3,4,5-trimethoxyphenyl)-1H-indol-6-yl)benzonitrile] | > 100 µM |
| CCCCc1ccc(-c2ccc3ccn(-c4cc(OC)c(OC)c(OC)c4)c3c2)cc1 [3i, 6-(4-butylphenyl)-1-(3,4,5-trimethoxyphenyl)-1H-indole] | > 100 µM |
| COc1cc(-n2ccc3ccc(-c4ccc(Oc5ccccc5)cc4)cc32)cc(OC)c1OC [3o, 6-(4-Phenoxyphenyl)-1-(3,4,5-trimethoxyphenyl)-1H-indole] | > 100 µM |
| COc1cc(-n2ccc3ccc(-c4ccccc4)cc32)cc(OC)c1OC [3a, 6-phenyl-1-(3,4,5-trimethoxyphenyl)-1H-indole] | 1.16 ± 0.12 µM |
| COc1cc(-n2ccc3ccc(-c4ccc(C#N)cc4)cc32)cc(OC)c1OC [3m, 4-(1-(3,4,5-trimethoxyphenyl)-1H-indol-6-yl)benzonitrile] | > 100 µM |
| COc1cc(-n2ccc3ccc(-c4cccc(C)c4)cc32)cc(OC)c1OC [3c, 6-(m-tolyl)-1-(3,4,5-trimethoxyphenyl)-1H-indole] | 53.2 ± 4.06 µM |

tested on: A549 cells; assay: CCK-8 antiproliferative assay, A549; assay type: cell-based; conditions: Homo sapiens, cell viability (CCK-8), 48 h
Procedure: as §1, §2, §3

| SMILES | IC50 |
| --- | --- |
| CCc1ccccc1-c1ccc2ccn(-c3cc(OC)c(OC)c(OC)c3)c2c1 [3d, 6-(2-ethylphenyl)-1-(3,4,5-trimethoxyphenyl)-1H-indole] | 60.2 ± 4.17 µM |
| COc1cc(-n2ccc3ccc(-c4ccccc4C#N)cc32)cc(OC)c1OC [3l, 2-(1-(3,4,5-trimethoxyphenyl)-1H-indol-6-yl)benzonitrile] | > 100 µM |
| CCCCc1ccc(-c2ccc3ccn(-c4cc(OC)c(OC)c(OC)c4)c3c2)cc1 [3i, 6-(4-butylphenyl)-1-(3,4,5-trimethoxyphenyl)-1H-indole] | > 100 µM |
| COc1cc(-n2ccc3ccc(-c4ccc(Oc5ccccc5)cc4)cc32)cc(OC)c1OC [3o, 6-(4-Phenoxyphenyl)-1-(3,4,5-trimethoxyphenyl)-1H-indole] | > 100 µM |
| COc1cc(-n2ccc3ccc(-c4ccccc4)cc32)cc(OC)c1OC [3a, 6-phenyl-1-(3,4,5-trimethoxyphenyl)-1H-indole] | 36.6 ± 1.78 µM |
| COc1cc(-n2ccc3ccc(-c4ccc(C#N)cc4)cc32)cc(OC)c1OC [3m, 4-(1-(3,4,5-trimethoxyphenyl)-1H-indol-6-yl)benzonitrile] | > 100 µM |
| COc1cc(-n2ccc3ccc(-c4cccc(C)c4)cc32)cc(OC)c1OC [3c, 6-(m-tolyl)-1-(3,4,5-trimethoxyphenyl)-1H-indole] | 92.4 ± 8.58 µM |

tested on: MCF-7 cells; assay: CCK-8 antiproliferative assay, MCF-7; assay type: cell-based; conditions: Homo sapiens, MCF7; cell viability (CCK-8), 48 h
Procedure: as §1, §2, §3

| SMILES | IC50 |
| --- | --- |
| CCc1ccccc1-c1ccc2ccn(-c3cc(OC)c(OC)c(OC)c3)c2c1 [3d, 6-(2-ethylphenyl)-1-(3,4,5-trimethoxyphenyl)-1H-indole] | 34.2 ± 1.62 µM |
| COc1cc(-n2ccc3ccc(-c4ccccc4C#N)cc32)cc(OC)c1OC [3l, 2-(1-(3,4,5-trimethoxyphenyl)-1H-indol-6-yl)benzonitrile] | > 100 µM |
| CCCCc1ccc(-c2ccc3ccn(-c4cc(OC)c(OC)c(OC)c4)c3c2)cc1 [3i, 6-(4-butylphenyl)-1-(3,4,5-trimethoxyphenyl)-1H-indole] | > 100 µM |
| COc1cc(-n2ccc3ccc(-c4ccc(Oc5ccccc5)cc4)cc32)cc(OC)c1OC [3o, 6-(4-Phenoxyphenyl)-1-(3,4,5-trimethoxyphenyl)-1H-indole] | > 100 µM |
| COc1cc(-n2ccc3ccc(-c4ccccc4)cc32)cc(OC)c1OC [3a, 6-phenyl-1-(3,4,5-trimethoxyphenyl)-1H-indole] | 10.1 ± 0.68 µM |
| COc1cc(-n2ccc3ccc(-c4ccc(C#N)cc4)cc32)cc(OC)c1OC [3m, 4-(1-(3,4,5-trimethoxyphenyl)-1H-indol-6-yl)benzonitrile] | > 100 µM |
| COc1cc(-n2ccc3ccc(-c4cccc(C)c4)cc32)cc(OC)c1OC [3c, 6-(m-tolyl)-1-(3,4,5-trimethoxyphenyl)-1H-indole] | 9.15 ± 0.21 µM |

tested on: HeLa cells; assay: CCK-8 antiproliferative assay, HeLa; assay type: cell-based; conditions: Homo sapiens, cell viability (CCK-8), 48 h
Procedure: as §1, §2, §3

| SMILES | IC50 |
| --- | --- |
| CCc1ccccc1-c1ccc2ccn(-c3cc(OC)c(OC)c(OC)c3)c2c1 [3d, 6-(2-ethylphenyl)-1-(3,4,5-trimethoxyphenyl)-1H-indole] | 46.6 ± 3.65 µM |
| COc1cc(-n2ccc3ccc(-c4ccccc4C#N)cc32)cc(OC)c1OC [3l, 2-(1-(3,4,5-trimethoxyphenyl)-1H-indol-6-yl)benzonitrile] | > 100 µM |
| CCCCc1ccc(-c2ccc3ccn(-c4cc(OC)c(OC)c(OC)c4)c3c2)cc1 [3i, 6-(4-butylphenyl)-1-(3,4,5-trimethoxyphenyl)-1H-indole] | > 100 µM |
| COc1cc(-n2ccc3ccc(-c4ccc(Oc5ccccc5)cc4)cc32)cc(OC)c1OC [3o, 6-(4-Phenoxyphenyl)-1-(3,4,5-trimethoxyphenyl)-1H-indole] | > 100 µM |
| COc1cc(-n2ccc3ccc(-c4ccccc4)cc32)cc(OC)c1OC [3a, 6-phenyl-1-(3,4,5-trimethoxyphenyl)-1H-indole] | > 100 µM |
| COc1cc(-n2ccc3ccc(-c4ccc(C#N)cc4)cc32)cc(OC)c1OC [3m, 4-(1-(3,4,5-trimethoxyphenyl)-1H-indol-6-yl)benzonitrile] | > 100 µM |
| COc1cc(-n2ccc3ccc(-c4cccc(C)c4)cc32)cc(OC)c1OC [3c, 6-(m-tolyl)-1-(3,4,5-trimethoxyphenyl)-1H-indole] | 66.5 ± 6.21 µM |

tested on: MDA-MB-231 cells; assay: CCK-8 antiproliferative assay, MDA-MB-231; assay type: cell-based; conditions: Homo sapiens, cell viability (CCK-8), 48 h
Procedure: as §1, §2, §3

| SMILES | IC50 |
| --- | --- |
| CCc1ccccc1-c1ccc2ccn(-c3cc(OC)c(OC)c(OC)c3)c2c1 [3d, 6-(2-ethylphenyl)-1-(3,4,5-trimethoxyphenyl)-1H-indole] | 23.4 ± 0.44 µM |
| COc1cc(-n2ccc3ccc(-c4ccccc4C#N)cc32)cc(OC)c1OC [3l, 2-(1-(3,4,5-trimethoxyphenyl)-1H-indol-6-yl)benzonitrile] | > 100 µM |
| CCCCc1ccc(-c2ccc3ccn(-c4cc(OC)c(OC)c(OC)c4)c3c2)cc1 [3i, 6-(4-butylphenyl)-1-(3,4,5-trimethoxyphenyl)-1H-indole] | > 100 µM |
| COc1cc(-n2ccc3ccc(-c4ccc(Oc5ccccc5)cc4)cc32)cc(OC)c1OC [3o, 6-(4-Phenoxyphenyl)-1-(3,4,5-trimethoxyphenyl)-1H-indole] | > 100 µM |
| COc1cc(-n2ccc3ccc(-c4ccccc4)cc32)cc(OC)c1OC [3a, 6-phenyl-1-(3,4,5-trimethoxyphenyl)-1H-indole] | 78.92 ± 0.57 µM |
| COc1cc(-n2ccc3ccc(-c4ccc(C#N)cc4)cc32)cc(OC)c1OC [3m, 4-(1-(3,4,5-trimethoxyphenyl)-1H-indol-6-yl)benzonitrile] | > 100 µM |
| COc1cc(-n2ccc3ccc(-c4cccc(C)c4)cc32)cc(OC)c1OC [3c, 6-(m-tolyl)-1-(3,4,5-trimethoxyphenyl)-1H-indole] | 37.7 ± 0.89 µM |

target: T1, purified porcine brain tubulin (Sus scrofa, UniProt P02554); assay: Biolayer interferometry (BLI) binding to tubulin; conditions: immobilized tubulin, 1:1 binding model, mean ± SD, triplicate
T1 construct: purified porcine brain tubulin; from tissue; host or cells: porcine brain
Procedure: To detect the direct interaction between the synthesized compounds and tubulin, biolayer interferometry (BLI) experiments were performed using purified porcine brain tubulin immobilized on Super Streptavidin (SSA) biosensor [30]. […] Association and dissociation kinetics were monitored in real time, and equilibrium dissociation constants (KD) were determined by global fitting of the sensorgrams to a 1:1 binding model. All measurements were conducted in triplicate, and results are reported as mean ± SD.
BLI assays were performed on an Octet RED96 instrument (FortéBio, Pall Life Sciences, Menlo Park, CA, USA) at 25 °C in PBS buffer supplemented with 0.02% (v/v) Tween-20 as the running buffer. Biotinylated tubulin proteins (3 μg/mL) were immobilized onto Super Streptavidin (SSA) biosensors. Association and dissociation were monitored for 60 s each. […] Reference subtraction was performed using sensors incubated in running buffer without protein loading to correct for baseline drift. Data were analyzed using Octet Data Analysis software (version 9.0), and equilibrium dissociation constants (KD) were determined by fitting the curves to a 1:1 binding model. All measurements were performed in triplicate, and results are reported as mean ± SD.
BLI assays were performed on an Octet RED96 instrument (FortéBio, Pall Life Sciences) at 25 °C in PBS buffer supplemented with 0.02% (v/v) Tween-20 as the running buffer. Biotinylated tubulin proteins (3 μg/mL) were immobilized onto Super Streptavidin (SSA) biosensors. Association and dissociation were monitored for 60 s […]
Reference subtraction was performed using sensors incubated in running buffer without protein loading to correct for baseline drift. Data were analyzed using Octet Data Analysis software (version 9.0), and equilibrium dissociation constants (KD) were determined by fitting the curves to a 1:1 binding model. All measurements were performed in triplicate, and results are reported as mean ± SD.

T1 sequence (P02554 whole entry): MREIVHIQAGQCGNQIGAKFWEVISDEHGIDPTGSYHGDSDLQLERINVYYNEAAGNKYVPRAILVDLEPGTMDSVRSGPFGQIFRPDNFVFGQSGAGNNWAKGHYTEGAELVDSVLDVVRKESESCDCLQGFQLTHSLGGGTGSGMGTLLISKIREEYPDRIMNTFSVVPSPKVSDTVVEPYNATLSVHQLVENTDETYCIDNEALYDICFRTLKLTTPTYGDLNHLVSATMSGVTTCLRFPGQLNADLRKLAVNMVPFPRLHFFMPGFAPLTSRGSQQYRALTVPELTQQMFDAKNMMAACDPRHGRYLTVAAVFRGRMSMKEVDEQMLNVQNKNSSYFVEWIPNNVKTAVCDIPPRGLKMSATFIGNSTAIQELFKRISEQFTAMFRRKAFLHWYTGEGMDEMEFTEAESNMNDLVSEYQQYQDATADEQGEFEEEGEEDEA
T1 sequence (P02550 whole entry partner): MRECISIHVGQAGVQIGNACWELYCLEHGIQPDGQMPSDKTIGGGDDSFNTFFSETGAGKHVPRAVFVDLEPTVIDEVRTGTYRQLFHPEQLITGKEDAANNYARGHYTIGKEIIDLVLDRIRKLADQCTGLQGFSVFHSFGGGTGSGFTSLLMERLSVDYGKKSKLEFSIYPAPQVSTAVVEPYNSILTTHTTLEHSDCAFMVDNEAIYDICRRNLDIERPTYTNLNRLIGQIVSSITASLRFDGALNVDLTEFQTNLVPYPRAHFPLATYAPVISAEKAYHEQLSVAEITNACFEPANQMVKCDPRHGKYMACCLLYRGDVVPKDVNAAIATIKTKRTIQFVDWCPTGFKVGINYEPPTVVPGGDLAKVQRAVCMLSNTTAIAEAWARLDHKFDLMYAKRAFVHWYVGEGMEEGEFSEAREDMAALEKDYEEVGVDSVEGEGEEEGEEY

| SMILES | KD | Kd |
| --- | --- | --- |
| CCc1ccccc1-c1ccc2ccn(-c3cc(OC)c(OC)c(OC)c3)c2c1 [3d, 6-(2-ethylphenyl)-1-(3,4,5-trimethoxyphenyl)-1H-indole] | low micromolar range | 24 ± 2.13 µM |
| COc1cc(-n2ccc3ccc(-c4ccccc4C#N)cc32)cc(OC)c1OC [3l, 2-(1-(3,4,5-trimethoxyphenyl)-1H-indol-6-yl)benzonitrile] | low micromolar range | 26 ± 3.38 µM |
| CCCCc1ccc(-c2ccc3ccn(-c4cc(OC)c(OC)c(OC)c4)c3c2)cc1 [3i, 6-(4-butylphenyl)-1-(3,4,5-trimethoxyphenyl)-1H-indole] | undetectable binding | > 200 µM |
| COc1cc(-n2ccc3ccc(-c4ccc(Oc5ccccc5)cc4)cc32)cc(OC)c1OC [3o, 6-(4-Phenoxyphenyl)-1-(3,4,5-trimethoxyphenyl)-1H-indole] | – | 31 ± 3.41 µM |
| COc1cc(-n2ccc3ccc(-c4ccccc4)cc32)cc(OC)c1OC [3a, 6-phenyl-1-(3,4,5-trimethoxyphenyl)-1H-indole] | – | 39 ± 2.6 µM |
| COc1cc(-n2ccc3ccc(-c4ccc(C#N)cc4)cc32)cc(OC)c1OC [3m, 4-(1-(3,4,5-trimethoxyphenyl)-1H-indol-6-yl)benzonitrile] | undetectable binding | > 200 µM |
| COc1cc(-n2ccc3ccc(-c4cccc(C)c4)cc32)cc(OC)c1OC [3c, 6-(m-tolyl)-1-(3,4,5-trimethoxyphenyl)-1H-indole] | low micromolar range | 23 ± 2.12 µM |

tested on: B16-F10 cells; assay: CCK-8 antiproliferative assay, B16-F10; assay type: cell-based, murine; conditions: Mus musculus, cell viability (CCK-8), 48 h
Procedure: as §1, §2, §3

| SMILES | IC50 |
| --- | --- |
| CCc1ccccc1-c1ccc2ccn(-c3cc(OC)c(OC)c(OC)c3)c2c1 [3d, 6-(2-ethylphenyl)-1-(3,4,5-trimethoxyphenyl)-1H-indole] | 6.49 ± 0.4 µM |
| COc1cc(-n2ccc3ccc(-c4ccccc4C#N)cc32)cc(OC)c1OC [3l, 2-(1-(3,4,5-trimethoxyphenyl)-1H-indol-6-yl)benzonitrile] | > 100 µM |
| CCCCc1ccc(-c2ccc3ccn(-c4cc(OC)c(OC)c(OC)c4)c3c2)cc1 [3i, 6-(4-butylphenyl)-1-(3,4,5-trimethoxyphenyl)-1H-indole] | > 100 µM |
| COc1cc(-n2ccc3ccc(-c4ccc(Oc5ccccc5)cc4)cc32)cc(OC)c1OC [3o, 6-(4-Phenoxyphenyl)-1-(3,4,5-trimethoxyphenyl)-1H-indole] | > 100 µM |
| COc1cc(-n2ccc3ccc(-c4ccccc4)cc32)cc(OC)c1OC [3a, 6-phenyl-1-(3,4,5-trimethoxyphenyl)-1H-indole] | 45.4 ± 1.11 µM |
| COc1cc(-n2ccc3ccc(-c4ccc(C#N)cc4)cc32)cc(OC)c1OC [3m, 4-(1-(3,4,5-trimethoxyphenyl)-1H-indol-6-yl)benzonitrile] | > 100 µM |
| COc1cc(-n2ccc3ccc(-c4cccc(C)c4)cc32)cc(OC)c1OC [3c, 6-(m-tolyl)-1-(3,4,5-trimethoxyphenyl)-1H-indole] | 59.2 ± 5.86 µM |
